Assay results reported in patent US20110207817A1, “ANTI-INFLAMMATORY COMPOUNDS AND COMPOSITIONS THEREOF” (priority 2008, published 2011).

Legend:
Assay type in all cases: cell-based
[1] = tested on: Human Gingival Fibroblast (HGF) cells; experiment: PGE2 release from LPS-irritated Human Gingival Fibroblast cells, neat solution (Example 1); conditions: for PGE2 Release (with LPS): 2 μg/mL P. gingivalis LPS, negative control without LPS = 100%
Protocol: For Examples 1 through 3, three sets of cell culture experiments were conducted in order to establish the anti-inflammatory efficacy of sodium propyl paraben. In all cases, in-vitro testing was conducted using Human Gingival Fibroblast cells suspended in low serum media. To irritate the cells, 2 μg/mL lipopolysaccharide (LPS) derived from P. gingivalis was added to the media. Sodium propyl paraben was added either directly to the media or incorporated into an adhesive matrix which was then suspended into the media by means of a permeable plastic insert. Cellular response was quantified by the presence of Prostaglandin E2 (PGE2), a cytokine associated with cellular irritation and inflammation, following an incubation period. Data is reported below after normalizing the level of PGE2 release of a negative control to “100%”. In-vitro testing was conducted using Human Gingival Fibroblast (HGF) cells that had been purchased from ScienCell (Carlsbad, Calif.). Prior to use, the cells had been grown in a 37° C. incubator with 5% CO2 and 95% humidity. Cells were maintained in high glucose Dulbecco's Modified Eagle's Medium (Mediatech, Manassas, Va.) with a 10% addition of heat inactivated Fetal Bovine Serum (Mediatech) and a 1% addition of Penicillin-Streptomycin 100× solution (Mediatech). Cells that had been previously frozen for long-term storage were allowed to recover/expand for at least one passage before being utilized for experimentation. To plate the cells, the maintenance medium was aspirated and the cells were washed with Hank's Balanced Salt Solution (Mediatech). Subsequently, the HBSS was aspirated and a trypsin-EDTA solution (Mediatech) was added to ensure that the cells released from the tissue culture plastic. Maintenance medium was reapplied and fractions of the solution containing the cells were transferred to a multi-well plate. After transfer, incubation was conducted to expand the cell population to 80% confluency. When the desired level of confluency was achieved, the maintenance medium was aspirated and one of several test solutions was added. For a negative control, a low serum medium was prepared that contained 0.5% of Fetal Bovine Serum (Mediatech) and 581.08 mg/L of L-gluatmine powder (Sigma-Aldrich, Milwaukee, Wis.) in DMEM High Glucose Media without Phenol Red and L-Glutamine (VWR Scientific, West Chester, Pa.). Low serum media were also prepared with the addition of 1, 10, or, 100 μg/mL of sodium propyl paraben (Sigma-Aldrich). […] An ELISA kit from R&D Systems (Minneapolis, Minn.) was used to quantify the release of PGE2 from the cells. […] The quantity of PGE2 reported by the assay was normalized by the percentage of viable cells or total protein. […]

[2] = tested on: Mouse macrophage Raw 264.7 cells; experiment: LPS-induced PGE2 release from Raw 264.7 cells (Example 4)
Protocol: (§1) In the presence and absence of sodium propyl paraben, mouse macrophage cells (RAW 264.7) and human gingival cells (HGF) were stimulated with LPS and the levels of inflammatory mediators Prostaglandin E2 (PGE2) and interleukin 8 (IL-8) in the cell supernatants were measured. While LPS administration increased the secretion of inflammatory mediators, sodium propyl paraben decreased LPS induced secretion of these mediators in a dose dependent manner. Sodium propyl paraben was identified as a novel anti-inflammatory agent, inhibiting the secretion of inflammatory mediators from both leukocytes and gingival fibroblasts. Mouse macrophage Raw 264.7 cells and human gingival fibroblast HGF cells were purchased from ATCC (Manassas, Va.) and ScienCell LLC (Carlsbad, Calif.), respectively. All of the culturing reagents were purchased from Mediatech (Manassas, Va.) unless otherwise stated. Both cell lines were cultured in a humidified incubator at 37° C. and in the presence of 5% CO2 and maintained in Dulbecco's Modified Eagle Medium (DMEM, 4.5 g/l glucose) supplemented with 10% Fetal Bovine Serum (FBS) and 1% penicillin-streptomycin. […] The level of PGE2 or IL-8 was analyzed using commercially available enzyme-linked immunosorbent assay (ELISA) kits (R&D Systems, Minneapolis, Minn.). […]

[3] = tested on: human gingival fibroblast HGF cells; experiment: LPS-mediated IL-8 production (Example 4)
Protocol: as §1

[4] = tested on: human gingival fibroblast HGF cells; experiment: LPS-induced PGE2 release from HGF cells (Example 4); conditions: 100 μg/ml, without LPS
Protocol: as §1

SMILES: CCCOC(=O)c1ccc(O)cc1.[Na] [Sodium Propyl Paraben, propyl 4-hydroxybenzoate, sodium salt]
- PGE2 Release (with LPS) ([1]; 1 μg/mL in low serum media): 124 ± 52%
- PGE2 Release (with LPS) ([1]; 10 μg/mL in low serum media): 103 ± 23%
- PGE2 Release (with LPS) ([1]; 100 μg/mL in low serum media): 84 ± 62%
- PGE2 Release (without LPS) ([1]; 100 μg/mL in low serum media, no LPS, negative control = 100%): 62 ± 37%
- LPS-elevated release of PGE2 ([2]; 1, 10 and 100 μg/ml, PG-LPS 2 μg/ml, FIG. 1A): reduced to basal level
- LPS mediated IL-8 production ([3]; 1, 10 or 100 μg/ml, PG-LPS 2 μg/ml, FIG. 1C): reduced LPS mediated IL-8 production in a dose dependent manner

SMILES: CCCOC(=O)c1ccc(O)cc1 [propyl paraben, propyl 4-hydroxybenzoate]
- Induction of PGE2 by compound alone ([2]; 100 μg/ml, without LPS): not observed
- Induction of PGE2 by compound alone [4]: not observed
- Induction of IL-8 by compound alone ([3]; 100 μg/ml, without LPS, either cell model): not observed
